Data on two molecules can be found in patent US6350758B1, “Tropane derivatives and method for their synthesis” (Georgetown University, priority 1996, dated 2002).

In the assay the target is T1, dopamine transporter (Rattus norvegicus, UniProt P23977).
T1 construct: Synaptosomes were prepared by homogenizing fresh tissue in 20 volumes of ice-cold 0.32 M sucrose; from tissue; host or cells: striatal (caudate nucleus) synaptosomes from fresh brain tissue
The experiment in a line: Test B: uptake of [3H]dopamine and [3H]serotonin into striatal synaptosomes. The assay is classed as biochemical. The following applies: dopamine vs serotonin transporter.

T1 sequence (P23977 whole entry): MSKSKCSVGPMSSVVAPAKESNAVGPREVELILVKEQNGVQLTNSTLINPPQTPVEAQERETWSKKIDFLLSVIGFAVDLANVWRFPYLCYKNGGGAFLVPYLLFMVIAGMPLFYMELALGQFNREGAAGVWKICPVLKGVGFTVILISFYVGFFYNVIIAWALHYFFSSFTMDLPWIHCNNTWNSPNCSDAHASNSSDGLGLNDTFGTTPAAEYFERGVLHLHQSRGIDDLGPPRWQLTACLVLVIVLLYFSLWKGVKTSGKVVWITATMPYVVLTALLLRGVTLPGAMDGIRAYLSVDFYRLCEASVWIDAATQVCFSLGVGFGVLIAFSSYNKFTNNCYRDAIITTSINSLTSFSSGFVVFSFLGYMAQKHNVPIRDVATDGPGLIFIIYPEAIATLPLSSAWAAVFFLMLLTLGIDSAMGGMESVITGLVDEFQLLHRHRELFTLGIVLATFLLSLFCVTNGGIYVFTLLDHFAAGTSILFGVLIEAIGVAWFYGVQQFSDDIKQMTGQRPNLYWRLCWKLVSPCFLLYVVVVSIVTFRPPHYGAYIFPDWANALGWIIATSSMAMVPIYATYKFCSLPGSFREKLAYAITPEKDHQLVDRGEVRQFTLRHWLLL
Method: Uptake of [^3H]dopamine and [^3H]serotonin was carried out using synaptosomes from the same brain regions as described above for binding assays. A Krebs phosphate buffer, pH 7.4, containing 1 μM pargyline, dextrose (1.9 mg/ml), and ascorbic acid (0.2 mg/ml) was used. Synaptosomes were prepared by homogenizing fresh tissue in 20 volumes of ice-cold 0.32 M sucrose using a glass-teflon homogenizer. Nuclei and large tissue fragments were removed by centrifugation at 800×g for 10 minutes. The supernatant was centrifuged at 20,000×g for 15 minutes to collect synaptosomes in a pellet. The pellet was resuspended in 0.32 M sucrose at a concentration of 15, 100 or 10 mg/ml original wet weight, and diluted 10 fold in the assay tubes. The final assay volume was 1.0 ml and the duration of incubation at 30° C. was 3 minutes so that uptake was inear with time in contrast to binding assays where binding had reached equilibrium.
Ki values were determined using serial dilutions of the analogues. A thirty minute preincubation of the analogues with the tissue was utilized before uptake was initiated by adding tritiated substrate. The preincubation was utilized to allow analogue and transporters to reach an equilibrium so that kinetic effects were not a significant factor. Ki values were determined using standard techniques.

Regarding `Cc1ccc([C@@H]2C[C@@H]3CC[C@H]([C@H]2c2ccccc2)N3C)cc1` [compound 37, (1R, 5S)-2β-Phenyl-3α-(p-tolyl)tropane], the “selectivity for the dopamine transporter relative to the serotonin transporter” value is “highly selective”.
Regarding `CN1[C@H]2CC[C@@H]1[C@@H](c1ccccc1)[C@H](c1ccccc1)C2` [compound 49, (1R,5S)-2β-Phenyl-3α-phenyltropane], the “selectivity for the dopamine transporter relative to the serotonin transporter” value is given as “highly selective”.
